Tests used:
[1] = test system: Mouse fibroblasts (3T3-L1 cells); test: Inhibition of differentiation of mouse fibroblasts into adipocytes, measured as GPDH activity; type: cell-based; conditions: 10 μM in D-MEM medium; control without addition 370 units
Description: Experiments were carried out for investigating whether the amino acid composition of the present invention is active in inhibiting the intracellular accumulation of fat granules (specifically, the ability to inhibit the induction of the differentiation of preadipocytes).
Mouse fibroblasts (3T3-LI cells) efficiently differentiate into adipocytes in the presence of dexamethasone (DEX), isobutylmethylxanthine (IBMX), and insulin. It is known that the addition of “Wortmannin”, which is a substance that inhibits the induction of differentiation to adipocytes, inhibits differentiation into adipocytes. This inhibitory effect can be evaluated by measuring the GPDH activity.
The GPDH activity is quantitated in terms of units where 1 unit equals 1 nmol of NADH which is oxidized for one minute in 1 mL of the culture medium for inducing the differentiation of mouse fibroblasts (3T3-LI cells) into adipocytes. A smaller value of units indicates a greater inhibitory effect on differentiation and a greater inhibition of intracellular fat granule accumulation.
The culture medium was obtained by dissolving the same amino acid composition of the present invention as that in Example 1 into D-MEM medium (i.e. serum-containing liquid medium) to provide a concentration of 1 mass %. Almost of the all amount of the amino acid composition was dissolved well by ultrasonication. […]

[2] = test system: athletes of sports which need endurance; test: Endurance exercise test in athletes after beverage ingestion (stationary bicycle, crossover); type: in vivo, human
Description: The object of these experiments was 12 athletes (6 males, 6 females) of sports which need endurance (for example, cycling, rowing, or triathlon). The following (a)-(c) were evaluated for a beverage containing the amino acid composition of the present invention, water, and flavor (Example 1), a beverage containing glucose, water, and flavor (Comparative Example 1), and a beverage containing water and flavor (Comparative Example 2): (a) work done during full exercise, (b) total amount of fat oxidation during steady-state submaximal exercise, (c) changes of plasma glucagon concentration and free-fatty acid, and (d) change of blood lactate concentration.
The test used a 3-way double-blind crossover design. The 12 athletes were divided into 6 groups. Each of the groups, which contains 2 athletes, is used in each of the following six kinds of experimental sequential procedures with 3 kinds of beverages (i.e. Example 1 and Comparative Examples 1 and 2).
In FIG. 1, the time, when the fasting was finished, was designated as the base time (i.e. time 0). A prescribed diet and limited exercise had been done during the period from 24 hours before the base time to 12 hours before the base time; fasting was carried out in the period of from 12 hours before the base time to time 0; and the beverage (i.e. Example 1, Comparative Example 1, or Comparative Example 2) was orally ingested at 30 minutes after the finish of the fasting. After the lapse of 30 minutes after ingesting the beverage (designated as the “sample” in FIG. 1), exercise with a stationary training bicycle was performed for 85 minutes at a work load equivalent to 65% of the maximum oxygen intake (referred to below as steady-state submaximal exercise), and, after finishing steady-state submaximal exercise, as much work as possible was completed in 5 minutes on the stationary training bicycle.

[3] = test system: Mouse fibroblasts (3T3-L1 cells); test: Fatty acid releasing activity in mouse fibroblasts differentiated to adipocytes (NEFA-C Test Wako); type: cell-based; conditions: 1 μM in PBS, 4 hours; triplicate; control 0.024
Description: The induction of differentiation from mouse fibroblasts (3T3-L1 cells) to adipocytes was carried out in 12-well multiwell plates according to a known procedure. After treatment over about 2 weeks to induce differentiation to adipocytes, it was confirmed under a microscope that large differences in the differentiation induction activity were not present among these wells.
[…] After 4 hours, 5 μL of the PBS solution was picked up and was transferred to a 96-well multiwell plate. The amount of free-fatty acid was measured on the 96-well multiwell plate by using a NEFA-C Test Wako which is for measuring free-fatty acid.
The principle of measuring the amount of free-fatty acid is as follows. AcylCoA is produced by the reaction between acylCoA synthetase (ACS) and free-fatty acid. The reaction of acylCoA oxidase (ACOD) with the produced acylCoA generates hydrogen peroxide, and in the presence of this hydrogen peroxide, oxidative condensation between 3-methyl-N-ethyl-N-(β-hydroxyethyl)aniline (MEHA) and 4-aminoantipyrine was done, and thereby a blue-purple dye was produced. The amount of free fatty acid can be detected by measurement Of the optimal absorbance of this blue-purple dye. A large quantity of free fatty acid indicates a high level of lipolysis and an inhibition of intracellular fat accumulation […].

SMILES: COC[C@H]1OC(=O)c2coc3c2[C@@]1(C)C1=C(C3=O)[C@@H]2CCC(=O)[C@@]2(C)C[C@H]1OC(C)=O [Comparative Example 4, Wortmannin]
- GPDH activity [1]: 47 units

SMILES: O=C[C@H](O)[C@@H](O)[C@H](O)[C@H](O)CO [Comparative Example 1, glucose]
- amount of work during the 5 minutes of full exercise (average value of the 12 participants) ([2]; 380 g beverage (6 g active) orally 30 min before 85 min steady-state submaximal exercise, then 5 min full exercise): 83.3 kJ
- total amount of fat oxidation during 85-minute steady-state submaximal exercise ([2]; beverage orally 30 min before exercise at 65% of maximum oxygen intake): 49.3 g
- concentration of lactic acid after 5-minute full exercise ([2]; blood, after full exercise): 8.8 mmol/L
- concentration of lactic acid immediately before full exercise (after the sustained exercise period) ([2]; blood, before full exercise): 1.5 mmol/L

SMILES: CC(C)NCC(O)c1ccc(O)c(O)c1 (racemic) [Comparative Example 9, dl-isoproterenol]
- average value of absorbance (amount of free-fatty acid) [3]: 0.041
